# Biological target: T1, RpGSTO1 (Rhopalosiphum padi, UniProt A0A2U9PFG6)
# T1 construct: pET-28a His-tag (tag removal not mentioned), E. coli BL21(DE3), BamHI/HindIII
# T1 sequence (A0A2U9PFG6 1-239): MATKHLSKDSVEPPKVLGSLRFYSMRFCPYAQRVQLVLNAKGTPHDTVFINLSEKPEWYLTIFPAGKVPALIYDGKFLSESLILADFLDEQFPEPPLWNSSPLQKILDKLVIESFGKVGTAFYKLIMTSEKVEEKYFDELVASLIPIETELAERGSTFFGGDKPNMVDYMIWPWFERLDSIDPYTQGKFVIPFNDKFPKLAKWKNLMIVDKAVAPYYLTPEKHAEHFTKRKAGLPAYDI
# Experiment: spectrophotometric GSH conjugation at […] nm, double reciprocal plot
# Assay type: biochemical
# Conditions: 5 mM GSH; 0.02-0.14 mM CDNB; pH 7.0, 0.1 M sodium phosphate
smiles,measurement,value
"O=[N+]([O-])c1ccc(Cl)c([N+](=O)[O-])c1 [CDNB, 1-chloro-2,4-dinitrobenzene]",Km,120 µM
